US20250288584A1, “COMBINATIONS COMPRISING POSITIVE ALLOSTERIC MODULATORS OR ORTHOSTERIC AGONISTS OF METABOTROPIC GLUTAMATERGIC RECEPTOR SUBTYPE 2 AND THEIR USE” (JANSSEN PHARMACEUTICA NV, priority 2014, published 2025)
Where “and” joins values, the source holds several entries; their conditions need not be identical. Equal entries are not always repeated.

Legend:
MES seizures = details: in vivo; cited from earlier work
6 Hz seizures = details: dose-dependent manner; cited from earlier work
paroxysmal dystonia = details: dt^sz mutant hamster; cited from earlier work
human mGlu2 receptor = biological target: T1, human mGlu2 receptor (Homo sapiens, UniProt Q14416); test: [35S]GTPγS binding assay, mGluR2 PAM; format: biochemical; details: maximal % effect relative to control glutamate response; EC20 glutamate; read-out: GTPγS-hmGluR2 PAM Emax
T1 construct: expressed in transfected cells; host or cells: CHO cells
Experimental: The [^35S]GTPγS binding assay is a functional membrane-based assay used to study G-protein coupled receptor (GPCR) function whereby incorporation of a non-hydrolysable form of GTP, [^35S]GTPγS (guanosine 5′-triphosphate, labelled with […] ^35S), is measured.
Cells were then collected by scraping in PBS and cell suspension was centrifuged (10 min at 4000 RPM in benchtop centrifuge). Supernatant was discarded and pellet gently resuspended in 50 mM Tris-HCl, pH 7.4 by mixing with a vortex and pipetting up and down. The suspension was centrifuged at 16,000 RPM (Sorvall RC-5C plus rotor SS-34) for 10 minutes and the supernatant discarded. The pellet was homogenized in 5 mM Tris-HCl, pH 7.4 using an ultra-turrax homogenizer and centrifuged again (18,000 RPM, 20 min, 4° C.). The final pellet was resuspended in 50 mM Tris-HCl, pH 7.4 and stored at-80° C. in appropriate aliquots before use. Protein concentration was determined by the Bradford method (Bio-Rad, USA) with bovine serum albumin as standard.
Measurement of mGluR2 positive allosteric modulatory activity of test compounds was performed as follows. Test compounds and glutamate were diluted in assay buffer containing 10 mM HEPES acid, 10 mM HEPES salt, pH 7.4, 100 mM NaCl, 3 mM MgCl2 and 10 μM GDP. Human mGlu2 receptor-containing membranes were thawed on ice and diluted in assay buffer supplemented with 14 μg/ml saponin. Membranes were pre-incubated with compound alone or together with a predefined (˜EC20) concentration of glutamate (PAM assay) for 30 min at 30° C. After addition of [^35S] GTPγS (f.c. 0.1 nM), assay mixtures were shaken briefly and further incubated to allow [^35S] GTPγS incorporation on activation (30 minutes, 30° C.). Final assay mixtures contained 7 μg of membrane protein in 10 mM HEPES acid, 10 mM HEPES salt, pH 7.4, 100 mM NaCl, 3 mM MgCl2, 10 µM GDP and 2 μg/ml saponin. Total reaction volume was 200 μl. Reactions were terminated by rapid filtration through Unifilter-96 GF/B plates (Perkin Elmer, Massachusetts, USA) using a 96-well filtermate universal harvester. Filters were washed 6 times with ice-cold 10 mM NaH2PO4/10 mM Na2HPO4, pH 7.4. Filters were then air-dried, and 40 μl of liquid scintillation cocktail (Microscint-O) was added to each well. Membrane-bound radioactivity was counted in a Microplate Scintillation and Luminescence Counter from Perkin Elmer.
The concentration-response curves of representative compounds of the present invention-obtained in the presence of EC20 of mGluR2 agonist glutamate to determine positive allosteric modulation (PAM)—were generated using the Lexis software interface (developed at J&J). Data were calculated as % of the control glutamate response, defined as the maximal response that is generated upon addition of glutamate alone. Sigmoid concentration-response curves plotting these percentages versus the log concentration of the test compound were analyzed using non-linear regression analysis. The concentration producing half-maximal effect is then calculated as EC50. The pEC50 values below were calculated as the −log EC50, when the EC50 is expressed in M. Emax is defined as relative maximal effect (i.e. maximal % effect relative to the control glutamate response).

[1] = system: 6 Hz (44 mA) psychomotor seizures; test: 6 Hz psychomotor seizure test, 44 mA (alone, combination with LEV, isobolographic study); format: in vivo, mice; details: for ED50: at TPE, read-out: ED50 (95% CI) 44 mA
Experimental: Test compounds were administered using an optimal fluid volume to body fluid ratio. Test compounds were administered to mice in a volume of 0.01 mL/g of body weight (White H. S., et al., General Principles: Experimental selection, quantification, and evaluation of antiepileptic drugs, in Antiepileptic Drugs, Fourth Edition, […], and B. S. Meldrum, Editors. 1995, Raven Press, Ltd.: New York, pp. 99-110). For subcutaneous (s.c.) administration, the test compounds were administered into a loose fold of skin along the back of the animal except compound 6-b, which was administered orally (p.o). […] The animals were maintained on an adequate diet (Prolab RMH 3000) and allowed free access to food and water, except during the short time they were removed from their cage for testing. Animals newly received in the laboratory were allowed sufficient time to correct for possible food and water restriction incurred during transit before being employed in testing. All mice were housed in plastic cages in specially constructed rooms with controlled humidity, exchange of air and controlled lighting (12 hours on-12 hours off). The animals were housed, fed, and handled in a manner consistent with the recommendations in the National Council Publication, “Guide for the Care and Use of Laboratory Animals”. In the determination of an ED50 or TD50 for each test compound, the first dose administered is usually the same dose as that used in a successful TPE determination. […] Third and fourth doses were selected to produce an evenly spaced dose response line. […] The 6 Hz seizure test is used as a model of pharmacoresistant limbic seizures. […] Focal seizures were induced in mice via corneal stimulation (6 Hz, 0.2 msec rectangular pulse, 3 sec duration; Barton et al. 2001). Mice were tested at either 32 mA or 44 mA. […] The seizures that arise from corneal stimulation in this assay are characterized by a minimal clonic phase followed by stereotyped automatistic behaviors including stun, forelimb clonus, twitching of the vibrissae, and Straub-tail. Animals not displaying these behaviors were considered protected. […] In addition to recording the efficacy and toxicity data for these compounds alone or in combination, both plasma and brain samples were collected from each of the groups for pharmacokinetic/pharmacokinetic analysis. No pharmacokinetic interaction was observed based on compound levels in the plasma and brain samples (data not shown). Isobolographic studies were conducted for the combined administration of Co. […] Studies were conducted according to previously described methods (Madsen et al. 2011). Initial ED50 values were determined for both Co. […] Co. […] Doses used were proportional to calculated ED50 values. […] Experimental treatment doses (see Table 4) were based on theoretical values and adjusted according to observed effects. Experimentally determined ED50 (+SEM) values for each fixed dose-ratio combination were compared to the theoretical values (t-test) for statistical purposes. […] Subsequently, the experimental combined doses were determined for the same paradigms in the 6 Hz seizure test (Table 4 below).

corneal kindled seizures = test: Mouse corneal kindling model; format: in vivo, mice; details: Racine score 0-5
Experimental: After the mice reached a stable kindled state, the test compound or vehicle was administered and, at the previously determined TPE, each animal was given the electrical stimulus indicated above. […] One dose of LEV and two doses of Co.

[2] = system: 6 Hz (32 mA) psychomotor seizures; test: 6 Hz psychomotor seizure test, 32 mA (incl. TPE determination); format: in vivo, mice; details: at TPE; for ED50: Mus musculus, sc, read-out: ED50 (95% CI) 32 mA
Experimental: Test compounds were administered using an optimal fluid volume to body fluid ratio. Test compounds were administered to mice in a volume of 0.01 mL/g of body weight (White H. S., et al., General Principles: Experimental selection, quantification, and evaluation of antiepileptic drugs, in Antiepileptic Drugs, Fourth Edition, […], and B. S. Meldrum, Editors. 1995, Raven Press, Ltd.: New York, pp. 99-110). For subcutaneous (s.c.) administration, the test compounds were administered into a loose fold of skin along the back of the animal except compound 6-b, which was administered orally (p.o). […] The animals were maintained on an adequate diet (Prolab RMH 3000) and allowed free access to food and water, except during the short time they were removed from their cage for testing. Animals newly received in the laboratory were allowed sufficient time to correct for possible food and water restriction incurred during transit before being employed in testing. All mice were housed in plastic cages in specially constructed rooms with controlled humidity, exchange of air and controlled lighting (12 hours on-12 hours off). The animals were housed, fed, and handled in a manner consistent with the recommendations in the National Council Publication, “Guide for the Care and Use of Laboratory Animals”. In the determination of an ED50 or TD50 for each test compound, the first dose administered is usually the same dose as that used in a successful TPE determination. […] Third and fourth doses were selected to produce an evenly spaced dose response line. […] TPE was determined using the 6 Hz (32 mA) assay. […] The 6 Hz seizure test is used as a model of pharmacoresistant limbic seizures. […] Focal seizures were induced in mice via corneal stimulation (6 Hz, 0.2 msec rectangular pulse, 3 sec duration; Barton et al. 2001). Mice were tested at either 32 mA or 44 mA. […] The seizures that arise from corneal stimulation in this assay are characterized by a minimal clonic phase followed by stereotyped automatistic behaviors including stun, forelimb clonus, twitching of the vibrissae, and Straub-tail. Animals not displaying these behaviors were considered protected.

[3] = Plasma and brain levels (pK/pD analysis); format: in vivo, mice; details: for concentration at 0.25 h: mouse, subcutaneous
Experimental: In various tests, animals were sacrificed following testing, and trunk blood and/or brain tissue (whole brains) was collected for quantification of drug levels. Immediately after testing, animals were decapitated and trunk blood was collected into a BD Vacutainer® tube containing K2EDTA and chilled on ice until centrifugation. Following centrifugation (13000-18000 rpm, 5-7 min), the plasma was removed and transferred to a labeled microcentrifuge tube and stored at −80° C. For brain tissue collection, brains were removed immediately following decapitation and flash frozen. The frozen sample was placed in a labeled centrifuge tube and stored at −80° C.
In addition to recording the efficacy and toxicity data for these compounds alone or in combination, both plasma and brain samples were collected from each of the groups for pharmacokinetic/pharmacokinetic analysis.

[4] = Mus musculus, sc, compound alone
[5] = Co. No. 2 3 mg/kg combined with LEV 10 mg/kg, 6 Hz 44 mA

T1 sequence (Q14416 19-872): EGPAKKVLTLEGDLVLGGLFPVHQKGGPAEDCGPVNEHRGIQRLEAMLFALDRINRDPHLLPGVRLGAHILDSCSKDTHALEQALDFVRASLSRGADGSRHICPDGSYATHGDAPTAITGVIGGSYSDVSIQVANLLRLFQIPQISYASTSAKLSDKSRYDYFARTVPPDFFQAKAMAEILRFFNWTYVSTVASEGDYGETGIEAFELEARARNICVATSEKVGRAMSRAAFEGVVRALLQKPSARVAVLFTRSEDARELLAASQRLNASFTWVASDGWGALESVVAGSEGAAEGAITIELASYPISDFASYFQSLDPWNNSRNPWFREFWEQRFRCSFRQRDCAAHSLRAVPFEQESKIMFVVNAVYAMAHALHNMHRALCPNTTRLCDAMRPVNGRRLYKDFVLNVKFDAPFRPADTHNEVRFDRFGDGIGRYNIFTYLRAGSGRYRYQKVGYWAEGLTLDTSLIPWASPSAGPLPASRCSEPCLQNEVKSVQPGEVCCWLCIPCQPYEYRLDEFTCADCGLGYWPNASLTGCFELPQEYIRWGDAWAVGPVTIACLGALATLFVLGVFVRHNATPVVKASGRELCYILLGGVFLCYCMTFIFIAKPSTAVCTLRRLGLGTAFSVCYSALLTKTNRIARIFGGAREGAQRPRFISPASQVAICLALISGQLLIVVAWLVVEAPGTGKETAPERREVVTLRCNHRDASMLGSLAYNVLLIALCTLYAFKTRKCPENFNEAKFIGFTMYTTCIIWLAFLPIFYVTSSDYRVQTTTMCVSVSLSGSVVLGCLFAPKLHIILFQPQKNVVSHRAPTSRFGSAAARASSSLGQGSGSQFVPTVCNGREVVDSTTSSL

N[C@@]1(C(=O)O)CO[C@H]2[C@H](C(=O)O)[C@H]21 [LY379268]
activity in maximal electroshock (MES) seizure test (MES seizures): ineffective | activity in the 6 Hz model (6 Hz seizures): effective

CCC[C@@H]1CC(=O)N([C@@H](CC)C(N)=O)C1 [Brivaracetam, (2S)-2-[(4R)-oxo-4-propyl-pyrrolidin-1-yl]butanamide]
effect on severity of dystonia (paroxysmal dystonia): reduce the severity of dystonia

FC(F)(F)Cc1nnc2c(Cl)c(N3CCC(F)(c4ccccc4)CC3)ccn12 [Co. No. 11]
Emax (human mGlu2 receptor): 310% | ED50 [1, 4]: 31.5 mg/kg | Seizure score (dose) Corneal kindling (corneal kindled seizures; 100 mg/kg s.c.): 2.8 | ED50 [2]: 4.77 mg/kg | ED50 (95% CI) 32 mA ([2]; s.c.): 9.41 (1.53-15.1) mg/kg

N[C@@]1(C(=O)O)CS[C@H]2[C@H](C(=O)O)[C@H]21 [LY389795]
activity in maximal electroshock (MES) seizure test (MES seizures): ineffective | activity in the 6 Hz model (6 Hz seizures): effective

CC[C@@H](C(N)=O)N1C[C@H](C=C(F)F)CC1=O [Seletracetam, (2S)-2-[(4S)-4-(2,2,-difluorovinyl)-2-oxo-pyrrolidin-1-yl]butanamide]
effect on severity of dystonia (paroxysmal dystonia): reduce the severity of dystonia

FC(F)(F)c1c(N2CCC(c3ccccc3)CC2)ccn2c(CC3CC3)nnc12 [Co. No. 2]
Brain (ng/ml) Co. No. 2, individual mice [3, 5]: 1120 ng/mL and 1140 ng/mL and 1540 ng/mL and 1020 ng/mL | Plasma (ng/ml) Co. No. 2, individual mice [3, 5]: 4700 ng/ml and 467 ng/ml and AQL and (>500) ng/ml and 2080 ng/ml and 1830 ng/ml and 386 ng/ml | concentration at 0.25 h ([3]; brain, 3 mg/kg, Mean Brain Level (non-combination) Co. No. 2, Co. No. 2 3 mg/kg alone): 1.11 µg/mL | concentration at 0.25 h ([3]; brain, Brain (ng/ml) Co. No. 2, individual mice, Co. No. 2 3 mg/kg combined with LEV 10 mg/kg, 6 Hz 44 mA): 1.31 µg/mL | concentration at 0.25 h ([3]; brain, Mean Brain Level Co. No. 2, Co. No. 2 3 mg/kg combined with LEV 10 mg/kg): 1.23 µg/mL | concentration at 0.25 h ([3]; plasma, 3 mg/kg, Mean Plasma Level (non-combination) Co. No. 2, Co. No. 2 3 mg/kg alone): 1.29 µg/mL | concentration at 0.25 h ([3]; plasma, Mean Plasma Level Co. No. 2, Co. No. 2 3 mg/kg combined with LEV 10 mg/kg): 1.89 µg/mL | responders at 3 mg/kg ([1]; Mus musculus, sc, 0.25 h, 3 mg/kg s.c., 0.25 h, read-out: # protected/# tested (converted)): 16.7% | ED50 [1, 4]: 5.89 mg/kg | Maximum Effect (% Protection) ([1]; compound alone): 100% | Seizure score (dose) Corneal kindling (corneal kindled seizures; 40 mg/kg s.c.): 3.4 | ED50 [2]: 3.83 mg/kg
